The source of these data is US10047058B2, “Compounds and methods for inhibiting vacuolar ATPase” (University of Southern California, priority 2015, dated 2018).

Broadly, the IC50 is the concentration needed to halve the response being measured.

In one test the target is ATP6V1A (Homo sapiens, UniProt P38606).
The subject of a further test is mammalian cells. The note with it: cited from earlier work.
Test [1] relates to MB231 breast cancer cells. The conditions noted are these: cited from earlier work.

ATP6V1A, sequence (P38606 whole entry): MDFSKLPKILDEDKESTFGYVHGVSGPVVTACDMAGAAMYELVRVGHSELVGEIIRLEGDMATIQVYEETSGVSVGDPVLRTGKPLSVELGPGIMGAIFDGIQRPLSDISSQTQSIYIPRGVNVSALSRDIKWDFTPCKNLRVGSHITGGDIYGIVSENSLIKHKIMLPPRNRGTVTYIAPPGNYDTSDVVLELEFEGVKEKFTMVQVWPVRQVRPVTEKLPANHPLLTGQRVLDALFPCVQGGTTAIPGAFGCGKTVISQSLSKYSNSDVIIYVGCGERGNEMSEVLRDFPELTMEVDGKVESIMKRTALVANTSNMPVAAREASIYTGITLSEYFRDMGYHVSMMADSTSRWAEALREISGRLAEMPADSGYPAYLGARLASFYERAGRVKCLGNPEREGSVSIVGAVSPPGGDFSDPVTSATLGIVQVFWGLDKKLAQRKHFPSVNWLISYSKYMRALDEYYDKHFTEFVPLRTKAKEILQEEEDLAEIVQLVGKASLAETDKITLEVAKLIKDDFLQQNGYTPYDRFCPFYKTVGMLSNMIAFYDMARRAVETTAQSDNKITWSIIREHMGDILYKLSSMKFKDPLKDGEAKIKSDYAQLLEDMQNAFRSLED

In turn, `O=C(CCl)Nc1ccc2c(Nc3ccccc3)ncnc2c1` [Formula I] yielded an IC50 against ATP6V1A of around 30 nM. For the same compound, the “inhibition of probe QZ1 labeling (screen of electrophilic quinazolines)” value on ATP6V1A (1 μM, cells pretreated with drug 30 min, then probe for 30 min) was “showed potent inhibition”.

For archazolid, in the test on mammalian cells, the “concentration that blocks growth of mammalian cells” value was “subnanomolar”.

For the compound `CO/C1=C\C(C)=C\[C@@H](C)[C@@H](O)[C@@H](C)C/C(C)=C/C=C/[C@H](OC)[C@@H]([C@@H](C)[C@@H](O)[C@H](C)[C@@]2(O)C[C@@H](O)[C@H](C)[C@@H](C(C)C)O2)OC1=O` [bafilomycin], the “effect on invasiveness of cancer cells” value in test [1] is recorded as “significantly inhibited”.
